# Source: US12552751B2, “Crystal forms A, B, C, D, E, F and G of selumetinib sulfate and preparation methods thereof” (Chunghwa Chemical Synthesis & Biotech Co. Ltd., priority 2023, dated 2026)
# How the values were obtained:
# [1] = Stability of crystal forms in a constant-humidity and constant-temperature cabinet; format: physicochemical; conditions: for Crystal form after exposure, 80° C. and 75% RH, 1 day / Crystal form after exposure, 80° C. and 75% RH, 3 days: powder; for Crystal form stability under 80° C. and 75% RH (text summary of Table 2): time not stated
# Method: The stability of crystal forms A, B, C, D, E, F and G of selumetinib sulfate was tested by placing the different crystal forms of selumetinib sulfate into a constant-humidity and constant-temperature cabinet, where the powder of each crystal form was exposed to a temperature of 80° C. and a relative humidity (RH) of 75%.
# [2] = cited from earlier work
# [3] = solid; cited from earlier work
smiles,measurement,setting,value
"Cn1cnc2c(F)c(Nc3ccc(Br)cc3Cl)c(C(=O)NOCCO)cc21.O=S(=O)(O)O [Crystal form E, selumetinib sulfate]","Crystal form after exposure, 80° C. and 75% RH, 1 day",[1]; listed as E,Remained E
same,"Crystal form after exposure, 80° C. and 75% RH, 3 days",[1]; listed as E,Remained E
same,Crystal form stability under 80° C. and 75% RH (text summary of Table 2),[1]; listed as E,remained unchanged
Cn1cnc2c(F)c(Nc3ccc(Br)cc3Cl)c(C(=O)NOCCO)cc21.O=S(=O)(O)O [Selumetinib sulfate],Solubility in acetonitrile,[2]; acetonitrile,slightly soluble
same,Solubility in ethanol,[2]; ethanol,slightly soluble
same,Solubility in water,[2]; water,very low solubility
same,Hygroscopicity,[3],non-hygroscopic
"Cn1cnc2c(F)c(Nc3ccc(Br)cc3Cl)c(C(=O)NOCCO)cc21.O=S(=O)(O)O [Crystal form F, selumetinib sulfate]","Crystal form after exposure, 80° C. and 75% RH, 1 day",[1]; listed as F,Remained F
same,"Crystal form after exposure, 80° C. and 75% RH, 3 days",[1]; listed as F,Remained F
same,Crystal form stability under 80° C. and 75% RH (text summary of Table 2),[1]; listed as F,remained unchanged
"Cn1cnc2c(F)c(Nc3ccc(Br)cc3Cl)c(C(=O)NOCCO)cc21.O=S(=O)(O)O [Crystal form B, selumetinib sulfate]","Crystal form after exposure, 80° C. and 75% RH, 1 day",[1]; listed as B,Remained B
same,"Crystal form after exposure, 80° C. and 75% RH, 3 days",[1]; listed as B,Remained B
same,Crystal form stability under 80° C. and 75% RH (text summary of Table 2),[1]; listed as B,remained unchanged
"Cn1cnc2c(F)c(Nc3ccc(Br)cc3Cl)c(C(=O)NOCCO)cc21.O=S(=O)(O)O [Crystal form G, selumetinib sulfate]","Crystal form after exposure, 80° C. and 75% RH, 1 day",[1]; listed as G,Remained G
same,"Crystal form after exposure, 80° C. and 75% RH, 3 days",[1]; listed as G,Remained G
same,Crystal form stability under 80° C. and 75% RH (text summary of Table 2),[1]; listed as G,remained unchanged
"Cn1cnc2c(F)c(Nc3ccc(Br)cc3Cl)c(C(=O)NOCCO)cc21.O=S(=O)(O)O [Crystal form D, selumetinib sulfate]","Crystal form after exposure, 80° C. and 75% RH, 1 day",[1]; listed as D,Remained D
same,"Crystal form after exposure, 80° C. and 75% RH, 3 days",[1]; listed as D,Remained D
same,Crystal form stability under 80° C. and 75% RH (text summary of Table 2),[1]; listed as D,remained unchanged
"Cn1cnc2c(F)c(Nc3ccc(Br)cc3Cl)c(C(=O)NOCCO)cc21.O=S(=O)(O)O [Crystal form C, selumetinib sulfate]","Crystal form after exposure, 80° C. and 75% RH, 1 day",[1]; listed as C,Remained C
same,"Crystal form after exposure, 80° C. and 75% RH, 3 days",[1]; listed as C,Remained C
same,Crystal form stability under 80° C. and 75% RH (text summary of Table 2),[1]; listed as C,remained unchanged
"Cn1cnc2c(F)c(Nc3ccc(Br)cc3Cl)c(C(=O)NOCCO)cc21.O=S(=O)(O)O [Crystal form A, selumetinib sulfate]","Crystal form after exposure, 80° C. and 75% RH, 1 day",[1]; listed as A,A turned into C
same,"Crystal form after exposure, 80° C. and 75% RH, 3 days",[1]; listed as A,A turned into C
same,Crystal form stability under 80° C. and 75% RH (text summary of Table 2),[1]; listed as crystal form A,turned into crystal form C
